In the NIST ThermoML archive (doi:10.1016/j.jct.2019.04.021) one finds mass density data, which are given here for 1 compound.

For this data set the following is noted: 298 K; 101.33 kPa; Crystal; X-ray diffraction.

± gives the expanded uncertainty stated by the source.

One may read the mass density as mass per unit of volume. Consider `[O-2].[O-2].[O-2].[Pr+3].[Pr+3]` [praseodymium oxide (Pr2O3)], for which the mass density came to 7060.5 ± 7.2 kg/m3.
